Values belong to the molecule of their own block, whether it stands above or below them.
What was measured:
[1] = Carboplatin plasma PK in patients of phase 1 trial (three-compartment model); assay type: in vivo
Method: Carboplatin and platinum adducts were determined in a limited number of blood samples from a previously presented phase 1 clinical trial (NCT02358200). […] In the case of grade 3 or grade 4 toxicity, carboplatin and/or talazoparib doses were held until below grade 1 and resumed at a lower dose level. Blood samples were obtained from a limited number of patients during cycle 1 day 1 (prior to talazoparib dosing) and cycle 2 day 1 pre-dose and up to 24 h post dose, and PBMCs were derived at day 15 post dose, DNA was extracted as described in Additional file 1d and platinum adducts were quantified by ICP-MS (Additional file 1b).
A three-compartment model best described carboplatin in plasma and no variability between patients was observed (Additional file 1: Figure S12 and Table S2). In further analyses, we assumed that the carboplatin plasma PK profile in the other 16 patients was similar to that the first 3 patients: in these patients glomerular filtration rate (GFR) ranged from 60 to 151 mL/min and BSA values ranged from 1.58 to 2.0 m^2. […] [34].
Supplementary Table 2: PK patients estimates carboplatin and platinum adducts Structural model PK Estimat RS
Inter-individual variability on Platinum adduct formation (RPT) 317% proportional residual error plasma carboplatin 28% 26 […]
proportional residual error adduct formation 110% 6%
Platinum adduct formation:
CL=clearance, V=volume of distribution, KA= rate of absorption, RPT= ratio of carboplatin adduct formation, KPT= rate of carboplatin adduct formation, gBRCA = germline BRCA carrier […]
(also on this page, place not known: ( )adductsC−×× plasmaCRPT KPT=dt dCadducts)
(1 picture or pasted object on this page, not shown here)

[2] = Veliparib spatial distribution by MALDI-MSI in TNBC xenograft tumor and muscle sections; assay type: in vivo, beige SCID mice
Method: Thirty-nine mice were euthanized approximately 3 h after the last dose of veliparib and 24 h after the last dose of carboplatin; two mice used in the DCE-MRI pilot were euthanized 1.5 h after single-dose administration of veliparib and carboplatin (Fig. 1). Bilateral xenograft tumors and liver and muscle (quadriceps) tissues were harvested. Tissues were cut into three pieces and either embedded in optimum cutting temperature (OCT) formulation or were directly snap frozen in liquid-nitrogen-cooled isopentane and stored at − 80 °C until analysis. […] A separate fresh-frozen portion of each tissue per animal was ground for quantification of veliparib and carboplatin by LC-MS. […]
Heterogeneity of drug distribution of veliparib in the tissues evaluated by MALDI-MSI was assessed by comparing the relative standard deviation in the whole tissue of muscle and tumor cells, and by comparing the mean pixel intensity of each immunohistochemically (IHC)-defined region of interest capturing the whole tumor region, and regions of cellularity/necrosis using one-way ANOVA. […]
By spiking different concentrations of veliparib on placebo treated mouse TNBC xenograft tissues, a rough estimate of the detection range of veliparib was determined to be 100 fmol-100 pmol absolute drug amount, Figure S2 left) with saturation of the signal occurring above 1 nmol/ μL. […]

MDA-MB-436 = settings: MDA-MB-436, BRCA1-mutated; ref [23], [25]; cited from earlier work
MDA-MB-231 = test system: MDA-MB-231; design: method as in PMID 21633166, PMID 21707865; settings: ref [23], [25]; cited from earlier work
[3] = design: method as in PMID 19364967; settings: ref [46]; cited from earlier work
[4] = test system: metastatic BRCA-mutated breast cancer; design: method as in ref [52] = [52]; 52. Somlo G Phase II trial of single agent PARP inhibitor ABT-888 (veliparib [vel]) followed by postprogression therapy of vel with carboplatin (carb) in patients (pts) with stage BRCA-associated meta; settings: veliparib 400 mg BID until disease progression; ref [52]; cited from earlier work
[5] = Veliparib plasma and tumor PK model (NONMEM) in xenograft mice; settings: for Kp: beige SCID (Fox Chase)
Method: PK-analyses were performed using nonlinear mixed-effects modeling (NONMEM VII Software, ICON Development Solutions, San Antonio, TX, USA), using the first-order conditional estimation with interaction (FOCEI) method. The model-building procedure was guided by the likelihood ratio test, diagnostic plots and internal model validation techniques, including visual predictive checks and bootstrap analysis. The effect of dose, concentration and cell source on TNBC xenograft tissue concentrations was assessed. The variability between animals was assessed using two components: one consistent difference common to all TNBC xenograft tissue samples from left and right mouse tumor and one mouse-specific difference (RRES) to understand the inter-individual and intra-individual variability.
Intra-animal error tumor 28% 21% 19%
proportional residual error plasma 13% 42% 8%
proportional residual error tumor 23% 19% 7%
proportional residual error plasma 41% 22% 9%

SMILES: N.N.O=C([O-])C1(C(=O)[O-])CCC1.[Pt+2] [carboplatin]
- Half-life carboplatin in plasma [1]: 2.1 h
- Q [1]: 0.324 L/h
- Q2 [1]: 16.7 L/h
- V1 [1]: 0.935 L
- V2 [1]: 52.8 L
- CLday15 ([1]; day 15): 5.33 L/h
- CLday1 ([1]; single agent day 1): 5.2 L/h

- Ion intensity tumor/muscle (RSE %) ([2]; cellular tumors (ROI)): 1.01 (85%)
- Kp ([5]; mouse, tumor (MDA-MB-231 xenograft), oral, Penetration from plasma to xenograft tumor (ratio, RPT), MDA-MB-231 xenografts): 0.36
- Kp ([5]; mouse, tumor (MDA-MB-436 xenograft), oral, Penetration from plasma to xenograft tumor (ratio, RPT), MDA-MB-436 xenografts): 0.46
- Kp ([5]; mouse, tumor (TNBC xenografts), oral, Veliparib transferred from plasma to TNBC xenografts, across the three xenograft types): 0.35 to 0.74
- Km ([5]; beige SCID, mouse, plasma, oral): 26.2 µg/mL
- Interindividual variability on F plasma ([5]; mouse PK model): 13%
- Interindividual variability on tumor penetration (between tumors in different animals) ([5]; mouse PK model): 37%
- Intra-animal variability tumor (within the tumor sections of an animal) ([5]; mouse PK model): 28%
- Q tumor ([5]; mouse PK model): 0.0694 mL/h
- V ([5]; mouse plasma PK model): 10.1 mL
- V2 ([5]; mouse plasma PK model): 0.0168 mL
- Vmax ([5]; mouse plasma PK model): 1.86 mL/h
- KA ([5]; mouse plasma PK model, oral gavage): 2.11 h⁻¹
- KPT, rate of transfer from plasma to tumor ([5]; mouse tumor PK model): 900 mL/h
SMILES: C[C@]1(c2nc3c(C(N)=O)cccc3[nH]2)CCCN1 [veliparib]
- Ion intensity tumor/muscle (RSE %) ([2]; necrotic tumors (ROI)): 1.63 (70%)
- Sensitivity in vitro (MDA-MB-436): sensitivity
- Sensitivity in vitro (MDA-MB-231): sensitivity
- Renal clearance as share of elimination [3]: 70%
- Patients with partial response [4]: 20%
- Kp ([5]; mouse, tumor (HCC70 xenograft), oral, Penetration from plasma to xenograft tumor (ratio, RPT), HCC70 xenografts): 0.75

Source: paper PMC5594551, “Heterogeneous drug penetrance of veliparib and carboplatin measured in triple negative breast tumors” (Breast Cancer Research : BCR, 2017)
